Experimental data as given in patent US20080234262A1 (Wyeth, priority 2007, published 2008).

Tests used:
prostate line LNCap = assay: In vitro cell culture growth assay (MTS), LNCap; type: cell-based, human; details: LNCap cells, three days after drug treatment;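 further: viable cell density read by absorbance at 490 nm, growth expressed as percent of vehicle-treated cells on the same plate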
PI3K = PI3K (Homo sapiens, UniProt P42336); assay: Fluorescence polarization assay for PI3K; type: biochemical; details: PI3Kα; read-out: PI3Kα IC50;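 further: PI3K kinase reaction on PIP2 with ATP, 30-60 min, product sensed by GST-GRP with red probe in fluorescence polarization (mP), controls without enzyme and at zero time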
Chain of PI3K (P42336 whole entry): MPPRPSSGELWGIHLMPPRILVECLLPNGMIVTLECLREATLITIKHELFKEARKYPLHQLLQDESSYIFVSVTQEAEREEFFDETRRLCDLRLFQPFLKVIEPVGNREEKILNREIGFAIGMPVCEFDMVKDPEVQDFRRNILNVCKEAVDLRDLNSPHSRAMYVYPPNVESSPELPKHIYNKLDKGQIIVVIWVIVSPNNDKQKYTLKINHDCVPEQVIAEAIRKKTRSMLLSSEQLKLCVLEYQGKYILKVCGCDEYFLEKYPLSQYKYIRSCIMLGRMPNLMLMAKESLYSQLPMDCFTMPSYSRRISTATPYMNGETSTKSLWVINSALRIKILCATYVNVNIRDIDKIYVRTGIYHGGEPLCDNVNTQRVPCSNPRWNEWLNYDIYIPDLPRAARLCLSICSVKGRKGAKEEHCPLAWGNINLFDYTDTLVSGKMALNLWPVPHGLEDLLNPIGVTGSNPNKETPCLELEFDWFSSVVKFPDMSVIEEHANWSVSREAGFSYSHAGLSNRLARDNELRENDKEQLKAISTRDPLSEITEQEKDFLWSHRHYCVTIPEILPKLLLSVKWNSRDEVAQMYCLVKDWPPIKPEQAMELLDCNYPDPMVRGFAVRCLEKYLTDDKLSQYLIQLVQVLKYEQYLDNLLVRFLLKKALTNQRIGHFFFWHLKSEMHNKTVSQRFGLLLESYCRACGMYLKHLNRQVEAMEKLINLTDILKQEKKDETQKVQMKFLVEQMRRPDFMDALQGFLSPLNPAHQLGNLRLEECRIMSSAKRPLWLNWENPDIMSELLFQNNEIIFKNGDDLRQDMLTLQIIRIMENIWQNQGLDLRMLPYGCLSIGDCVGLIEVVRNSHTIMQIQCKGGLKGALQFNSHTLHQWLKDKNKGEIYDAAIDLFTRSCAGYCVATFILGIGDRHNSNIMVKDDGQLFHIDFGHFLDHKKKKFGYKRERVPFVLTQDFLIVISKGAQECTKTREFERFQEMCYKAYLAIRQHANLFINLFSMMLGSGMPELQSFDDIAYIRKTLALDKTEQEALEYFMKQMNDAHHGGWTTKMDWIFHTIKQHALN
Chain of PI3K (P27986 whole entry partner): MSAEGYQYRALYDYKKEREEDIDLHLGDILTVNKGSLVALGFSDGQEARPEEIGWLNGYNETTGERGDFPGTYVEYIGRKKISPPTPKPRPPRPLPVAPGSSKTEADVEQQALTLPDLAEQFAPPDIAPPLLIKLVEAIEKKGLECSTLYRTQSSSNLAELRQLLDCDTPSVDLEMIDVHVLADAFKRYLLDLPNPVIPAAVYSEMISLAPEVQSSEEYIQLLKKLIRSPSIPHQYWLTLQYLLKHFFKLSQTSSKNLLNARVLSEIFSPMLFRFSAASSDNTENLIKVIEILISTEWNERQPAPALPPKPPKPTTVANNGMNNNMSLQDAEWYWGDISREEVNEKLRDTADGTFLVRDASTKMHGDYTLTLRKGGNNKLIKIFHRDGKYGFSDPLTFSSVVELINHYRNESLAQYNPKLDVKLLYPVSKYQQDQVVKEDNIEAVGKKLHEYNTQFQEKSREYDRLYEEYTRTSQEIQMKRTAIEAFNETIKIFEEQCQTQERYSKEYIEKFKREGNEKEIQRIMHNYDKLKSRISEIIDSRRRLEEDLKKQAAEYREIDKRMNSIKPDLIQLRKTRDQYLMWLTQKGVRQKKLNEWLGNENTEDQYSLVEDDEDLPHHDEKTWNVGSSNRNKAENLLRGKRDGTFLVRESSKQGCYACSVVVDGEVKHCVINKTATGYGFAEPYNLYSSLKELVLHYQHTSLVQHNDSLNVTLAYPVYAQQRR

breast line MDA468 = assay: In vitro cell culture growth assay (MTS), MDA468; type: cell-based, human; details: MDA468 cells, three days after drug treatment
In short: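 Growth measured as percent of same-plate vehicle control by MTS metabolic dye conversion (A490). Breast MDA468 and prostate LNCap cells, plated a day ahead, were exposed to compounds for 3 days.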

Compound | IC50 (prostate line LNCap; Homo sapiens, LNCaP, 72 h) [µM] | IC50 (PI3K) [µM] | IC50 (breast line MDA468; Homo sapiens, 72 h) [µM] | IC50 (prostate line LNCap) [µM] | IC50 (breast line MDA468) [µM]
C=CCN1CCC(n2ncc3c(N4CCOCC4)nc(-c4ccc(NC(=O)NC)cc4)nc32)CC1 [Compound 799, 1-{4-[1-(1-allylpiperidin-4-yl)-4-morpholin-4-yl-1H-pyrazolo[3,4-d]pyrimidin-6-yl]phenyl}-3-methylurea] | 0.14 | 0.072 | 0.51 | – | –
Nc1ccc(-c2nc(N3CCOCC3)c3cnn(C4CCN(CCCCO)CC4)c3n2)cc1 [Compound 749, 4-{4-[6-(4-aminophenyl)-4-morpholin-4-yl-1H-pyrazolo[3,4-d]pyrimidin-1-yl]piperidin-1-yl}butan-1-ol] | 12 | 4.23 | 30 | – | –
CNC(=O)Nc1ccc(-c2nc(N3CCOCC3)c3cnn(C4CCN(Cc5cnccc5OC)CC4)c3n2)cc1 [Compound 636, 1-[4-(1-{1-[(4-methoxypyridin-3-yl)methyl]piperidin-4-yl}-4-morpholin-4-yl-1H-pyrazolo[3,4-d]pyrimidin-6-yl)phenyl]-3-methylurea] | – | 0.082 | – | 0.07 | 0.22
COc1ccc(NC2CCC(n3ncc4c(N5CCOCC5)nc(-c5ccc6[nH]ccc6c5)nc43)CC2)cc1 (stereo not drawn) [Compound 153] | 2 | 0.46 | 6.5 | – | –
CN(C)c1ccc(CN2CCC(n3ncc4c(N5CCOCC5)nc(-c5ccc6[nH]ccc6c5)nc43)CC2)cc1 [Example 58] | 1.2 | 0.428 | 1.5 | – | –
CNCCNC(=O)Nc1ccc(-c2nc(N3CCOCC3)c3cnn(C4CCN(Cc5ccccc5)CC4)c3n2)cc1 [Compound 545, 1-{4-[1-(1-benzylpiperidin-4-yl)-4-morpholin-4-yl-1H-pyrazolo[3,4-d]pyrimidin-6-yl]phenyl}-3-[2-(methylamino)ethyl]urea] | 0.2 | 0.013 | 0.15 | – | –
O=C(Nc1ccccc1)Nc1ccc(-c2nc(N3CCOCC3)c3cnn(C4CCN(Cc5cccnc5)CC4)c3n2)cc1 [Example 339, 1-(4-{4-morpholin-4-yl-1-[1-(pyridin-3-ylmethyl)piperidin-4-yl]-1H-pyrazolo[3,4-d]pyrimidin-6-yl}phenyl)-3-phenylurea] | 0.031 | 0.011 | 0.2 | – | –
O=C(Nc1ccc(-c2nc(N3CCOCC3)c3cnn(C4CCN(Cc5cccnc5)CC4)c3n2)cc1)Nc1ccccn1 [Example 341, 1-(4-{4-morpholin-4-yl-1-[1-(pyridin-3-ylmethyl)piperidin-4-yl]-1H-pyrazolo[3,4-d]pyrimidin-6-yl}phenyl)-3-pyridin-2-ylurea] | 0.33 | 0.091 | 1.8 | – | –
Nc1ccc(-c2nc(N3CCOCC3)c3cnn(C4CCN(C(=O)c5cccnc5)CC4)c3n2)c(F)c1 [Compound 460, 3-fluoro-4-{4-morpholin-4-yl-1-[1-(pyridin-3-ylcarbonyl)piperidin-4-yl]-1H-pyrazolo[3,4-d]pyrimidin-6-yl}aniline] | 4.9 | 4.03 | 14 | – | –
CCOC(=O)N1CCC(n2ncc3c(N4CCOCC4)nc(-c4ccc(NC(=O)Nc5ccccn5)cc4)nc32)CC1 [Compound 815, ethyl 4-(4-morpholin-4-yl-6-{4-[(pyridin-2-ylcarbamoyl)amino]phenyl}-1H-pyrazolo[3,4-d]pyrimidin-1-yl)piperidine-1-carboxylate] | 1.5 | 3.81 | 5 | – | –
O=C(NCCO)Nc1ccc(-c2nc(N3CCOCC3)c3cnn(CC(F)(F)F)c3n2)cc1 [Compound 791, 1-(2-hydroxyethyl)-3-{4-[4-morpholin-4-yl-1-(2,2,2-trifluoroethyl)-1H-pyrazolo[3,4-d]pyrimidin-6-yl]phenyl}urea] | 0.22 | 0.136 | 0.26 | – | –
CCn1nc(C#CCN(C)C)c2c(N3CCOCC3)nc(-c3ccc(NC(=O)NC)cc3)nc21 [Compound 955, 1-(4-{3-[3-(dimethylamino)prop-1-yn-1-yl]-1-ethyl-4-morpholin-4-yl-1Hpyrazolo[3,4-d]pyrimidin-6-yl}phenyl)-3-methylurea] | 0.18 | 0.025 | 0.5 | – | –
CCOC(=O)N1CCC(n2ncc3c(N4CCOC[C@H]4C)nc(-c4ccc(NC(=O)Nc5ccccc5)cc4)nc32)CC1 [Compound 891, ethyl 4-(4-[(3R)-3-methylmorpholin-4-yl]-6-{4-[(phenylcarbamoyl)amino]phenyl}-1H-pyrazolo[3,4-d]pyrimidin-1-yl)piperidine-1-carboxylate] | 0.02 | 0.59 | 0.21 | – | –
COC(=O)N1CCC(n2ncc3c(N4CCOCC4)nc(-c4ccc5[nH]ccc5c4)nc32)CC1 [Compound 494, methyl 4-[6-(1H-indol-5-yl)-4-morpholin-4-yl-1H-pyrazolo[3,4-d]pyrimidin-1-yl]piperidine-1-carboxylate] | 0.75 | 3.3 | 2.05 | – | –
CNC(=O)Nc1ccc(-c2nc(N3CCOCC3)c3cnn(C4CCN(C(=O)N(C)C)CC4)c3n2)cc1 [Example 473, N,N-dimethyl-4-(6-{4-[(methylcarbamoyl)amino]phenyl}-4-morpholin-4-yl-1H-pyrazolo[3,4-d]pyrimidin-1-yl)piperidine-1-carboxamide] | 0.2 | 0.209 | 0.5 | – | –
CNC(=O)Nc1ccc(-c2nc(N3CCOCC3)c3cnn(C4CCNCC4)c3n2)cc1 [Example 338, 1-methyl-3-[4-(4-morpholin-4-yl-1-piperidin-4-yl-1H-pyrazolo[3,4-d]pyrimidin-6-yl)phenyl]urea] | 0.5 | 0.023 | 1.3 | – | –
O=C(NCCF)Nc1ccc(-c2nc(N3CCOCC3)c3cnn(C4CCN(C(=O)c5cccnc5)CC4)c3n2)cc1 [Example 303, 1-(2-fluoroethyl)-3-(4-{4-morpholin-4-yl-1-[1-(pyridin-3-ylcarbonyl)piperidin-4-yl]-1H-pyrazolo[3,4-d]pyrimidin-6-yl}phenyl)urea] | 0.63 | 0.541 | 0.5 | – | –
CNC(=O)Nc1ccc(-c2nc(N3CCOCC3)c3cnn(C4CCN(C(=O)c5cccnc5)CC4)c3n2)cn1 [Compound 725, 1-methyl-3-(5-{4-morpholin-4-yl-1-[1-(pyridin-3-ylcarbonyl)piperidin-4-yl]-1H-pyrazolo[3,4-d]pyrimidin-6-yl}pyridin-2-yl)urea] | – | 0.042 | – | 0.8 | 1.15
CNC(=O)Nc1ccc(-c2nc(N3CCOCC3)c3cnn(C4CCN(Cc5ccccn5)CC4)c3n2)cc1 [Example 331, 1-methyl-3-(4-{4-morpholin-4-yl-1-[1-(pyridin-2-ylmethyl)piperidin-4-yl]-1H-pyrazolo[3,4-d]pyrimidin-6-yl}phenyl)urea] | 0.027 | 0.065 | 0.5 | – | –
CCCNC(=O)Nc1ccc(-c2nc(N3CCOCC3)c3cnn(C4CCN(Cc5ccccc5)CC4)c3n2)cc1 [Compound 500, 1-{4-[1-(1-benzylpiperidin-4-yl)-4-morpholin-4-yl-1H-pyrazolo[3,4-d]pyrimidin-6-yl]phenyl}-3-propylurea] | 0.22 | 0.341 | 1.5 | – | –
c1ccc2cc(-c3nc(N4CCOCC4)c4cnn(C5CCNCC5)c4n3)ccc2c1 [Example 44] | 1.7 | 11 | 1.4 | – | –
O=C(NO)Nc1ccc(-c2nc(N3CCOCC3)c3cnn(C4CCN(Cc5cccnc5)CC4)c3n2)cc1 [Compound 562, 1-hydroxy-3-(4-{4-morpholin-4-yl-1-[1-(pyridin-3-ylmethyl)piperidin-4-yl]-1H-pyrazolo[3,4-d]pyrimidin-6-yl}phenyl)urea] | 1.1 | 0.259 | 1.5 | – | –
CNC(=O)Nc1ccc(-c2nc(N3CCOCC3)c3cnn(C4CCN(C(=O)c5cccc(C(F)(F)F)c5)CC4)c3n2)cc1 [Compound 605, 1-methyl-3-[4-(4-morpholin-4-yl-1-{1-[3-(trifluoromethyl)benzoyl]piperidin-4-yl}-1H-pyrazolo[3,4-d]pyrimidin-6-yl)phenyl]urea] | 0.045 | 0.076 | 0.16 | – | –
CNC(=O)Nc1ccc(-c2nc(N3CCOCC3)c3cnn(C4CCN(C(=O)c5ccccn5)CC4)c3n2)cc1 [Compound 662, 1-methyl-3-(4-{4-morpholin-4-yl-1-[1-(pyridin-2-ylcarbonyl)piperidin-4-yl]-1H-pyrazolo[3,4-d]pyrimidin-6-yl}phenyl)urea] | – | 0.124 | – | 0.12 | 0.22
CNC(=O)Nc1ccc(-c2nc(N3CCOCC3)c3cnn(C4CCN(C(=O)OCCBr)CC4)c3n2)cc1 [Compound 804, 2-bromoethyl 4-(6-{4-[(methylcarbamoyl)amino]phenyl}-4-morpholin-4-yl-1H-pyrazolo[3,4-d]pyrimidin-1-yl)piperidine-1-carboxylate] | 0.7 | 0.14 | 0.8 | – | –
COC(=O)N1CCC(n2ncc3c(N4CCOCC4)nc(-c4ccc(NC(=O)Nc5cccnc5)cc4)nc32)CC1 [Compound 737, methyl 4-(4-morpholin-4-yl-6-{4-[(pyridin-3-ylcarbamoyl)amino]phenyl}-1H-pyrazolo[3,4-d]pyrimidin-1-yl)piperidine-1-carboxylate] | < 0.027 | 0.034 | < 0.027 | – | –
OCCCN1CCC(n2ncc3c(N4CCOCC4)nc(-c4ccc5[nH]ccc5c4)nc32)CC1 [Compound 497, 3-{4-[6-(1H-indol-5-yl)-4-morpholin-4-yl-1H-pyrazolo[3,4-d]pyrimidin-1-yl]piperidin-1-yl}propan-1-ol] | 2.5 | 7.29 | 3 | – | –
COC(=O)Nc1ccc(-c2nc(N3CCOCC3)c3cnn(C4CCN(C(=O)c5ccccc5F)CC4)c3n2)cc1 [Example 443, methyl (4-{1-[1-(2-fluorobenzoyl)piperidin-4-yl]-4-morpholin-4-yl-1H-pyrazolo[3,4-d]pyrimidin-6-yl}phenyl)carbamate] | 0.25 | 1.14 | 0.5 | – | –
